Source: paper PMC11408460 (Cellular and Molecular Life Sciences: CMLS, 2024)
Residues, ends and D or L forms follow the SMILES beside them.

Columns and labels:
HeLa GL cells [1] = assay: Autophagy quantification by immunofluorescence (GFP-LC3B puncta area); format: cell-based; conditions: 4 h, peptides 1 mg/ml, Chloroquine 10 µM, Torin-1 1 µM, confocal microscopy, n = 32–110 cells
Protocol: HeLa GL cells were grown on coverslips (VWR) and treated for 4 h with respective substance. Afterwards, cells were fixed with 4% (w/v) PFA (Santa Cruz) for 20 min and permeabilized as well as blocked with 0.5% (v/v) Triton-X-100 (Sigma-Aldrich) and 5% (v/v) fetal bovine serum (Gibco) PBS for 1 h, both at RT. Cells were then mounted on microscope slides (VWR) in 4′,6-diamidino-2-phenylindole (DAPI, VWR)-containing Mowiol mounting medium (Mowiol 4–88 10% (w/v, Carl Roth), glycerol 25% (w/v, Sigma-Aldrich), H2O 25% (v/v), 0.2 M Tris HCl pH 8.5 50% (v/v, AppliChem GmbH, VWR), DABCO 2.5% (w/v, Carl Roth)) to co-stain nuclei. After acquiring ≥ 30 randomly selected cells using a Zeiss LSM 710 confocal microscope, a custom ImageJ (Version 1.54j) macro was used to analysis the total area of the cytoplasmic eGFP-LC3B puncta as previously described.
Scale bar, 10 µm. DAPI (blue), nuclei. e Quantitative analysis of the LC3B-GFP area per cell of the data in (d). Lines represent geometric mean with 95% confidence interval, n = 32–110. […] Student’s t-test with Welch correction. *p < 0.05; **p < 0.01; ***p < 0.001

in vitro = conditions: human, plasma
Protocol: (§1) The mixture was centrifuged at 13,000 rpm for 30 s, and 150 µl of the supernatant was mixed with 750 µl 10% acetic acid in ice. The samples were analyzed by an Axima Confidence MALDI-TOF MS (Shimadzu) in linear mode using exactly the same measurement conditions for all samples spotted on a 384-well plate. Wells were coated with 1 µl of 5 mg/ml CHCA previously dissolved in matrix diluent (Shimadzu), and the solvent was allowed to evaporate. Then, each sample (0.5 µl), previously mixed with matrix (0.5 µl), was applied onto the dry pre-coated well, and the solvent was allowed to evaporate. Laser shots were automatically done following a regular circular raster of a diameter of 2000 µm and spacing of 200 µm on each well; 100 profiles were acquired per sample, and 20 shots were accumulated per profile. An accelerating voltage of 20 kV was applied to the ion source. Three experiments were performed, and the measurements of each sample were done in triplicate (81 measurements in total). The measurement and MS data processing (peak area calculation) were controlled by MALDI-MS Application Shimadzu Biotech Launchpad 2.9.8.1 (Shimadzu). Half-lives were calculated by GraphPad Prism 9.3.1 (GraphPad Software, LLC).

[2] = HBA1(111–132) incubated in human plasma, 37 °C, mass spectrometry
Protocol: as §1

[3] = 1 mg/ml peptide in 1 × PBS, 22 °C, absorbance 330 nm, triplicates, corrected against PBS
Protocol: 100 µl peptide solution was transferred to transparent 96-well F-bottom microplates (Greiner) and immediately processed. Before the measurement, solutions were briefly mixed by double-orbital shaking for 60 s at 240 rpm. Measurements were done at 22 °C in triplicates using a TECAN Spark plate reader at a wavelength of 330 nm and a bandwidth of 3.5 nm. Values were corrected against 1 × PBS and averaged.

HeLa GL cells [4] = assay: Autophagy quantification via flow cytometry (membrane-bound eGFP-LC3B), HeLa GL; format: cell-based; conditions: 4 h; for autophagosome levels, versions of HBA1(120–132): 1 mg/ml, co-treatment with 20 µM Chloroquine, n = 10–24
Protocol: A detailed protocol for quantification of the number of autophagosomes has previously been published. In brief, HEK293T, HeLa, and THP-1 cell lines stably expressing eGFP-LC3B (labelled as -GL respectively) were used. After cells were treated for 4 h with respective substance/fraction, cells were harvested by removing the medium and adding 0.05% trypsin (PAN Biotech). Afterwards cells were washed once with PBS and permeabilized with 0.05% (w/v) Saponin (Sigma-Aldrich) in PBS. Non-membrane bound eGFP-LC3B was washed out using PBS. Cells were fixed in 4% (w/v) paraformaldehyde in PBS. Quantification of the membrane associated eGFP-LC3B was performed using flow cytometry FACS Canto II, BD Biosciences. The mean eGFP-LC3B fluorescence intensity of the water control was then subtracted from each sample.
To discover endogenous regulators of autophagy, we analyzed a human peptide library derived from bone marrow (BM). In brief, marrow was removed from 1.5 kg human femur bones and homogenized in acetic acid. The homogenate was filtered to contain only peptides with a molecular mass below 30 kDa. The BM library was initially separated on a reversed-phase column. To analyze the autophagy-modulating properties of individual peptide fractions, we used a high-throughput flow cytometry-based autophagosome quantification system. A hallmark of autophagy is the transition from soluble LC3B-I to autophagosome-associated LC3B-II. In GFP-LC3B expressing HeLa cells (HeLa GL), soluble GFP-LC3B is washed out by mild permeabilization and the remaining membrane-bound GFP-LC3B is quantified by FACS as a proxy for autophagosome numbers. Changes in autophagosome content are visualized as deviations from the background (i.e. carrier) control. […] Further purification identified subfraction BM.25.40.28 as bioactive (Fig. 1c). To identify the active peptide(s) we subjected fractions BM.25.40.26 to BM.25.40.30 to analysis by mass spectrometry (Supplementary data 1). Peptides with a molecular mass from ~ 750 Da to 5360 Da and a length from 7 to 57 amino acids were found in the fractions (Supplementary Fig. 1a). […]

[5] = human; cited from earlier work
Circular dichroism = format: physicochemical; conditions: 10 mM phosphate buffer pH 7.4, 25 °C; 130 µM HBA1(120–132), 54 µM HBA1(111–132), 2.1 µM full-length human HB
Protocol: Circular dichroism spectroscopy was recorded on a JASCO J-1500 spectrophotometer at 25 °C using a 0.1 cm path length quartz cuvette from Hellma Analytical. Data points were collected at a resolution of 0.2 nm, an integration time of 2 s and a scanning speed of 5 nm min-1. Each spectrum was the result of three accumulated independent scans. Phosphate buffer solution (10 mM, pH = 7.4) was employed to solubilize the samples. […] Background subtraction was performed using the solvent. Secondary structure estimation (SSE) for the samples was conducted using the CD Multivariate SSE program included in the JASCO spectrometer.

Compound: CCN(CC)CCCC(C)Nc1ccnc2cc(Cl)ccc12 (stereo not drawn) [Chloroquine]
- GFP-LC3B area per cell (puncta = autophagosomes) (HeLa GL cells [1]): expected increase of autophagosomes

Compound: CC(C)C[C@H](NC(=O)[C@H](Cc1ccccc1)NC(=O)[C@H](CCCCN)NC(=O)[C@H](CC(=O)O)NC(=O)[C@H](CC(C)C)NC(=O)[C@H](CO)NC(=O)[C@H](C)NC(=O)[C@H](Cc1c[nH]cn1)NC(=O)[C@@H](NC(=O)[C@H](C)NC(=O)[C@@H]1CCCN1C(=O)[C@@H](NC(=O)[C@H](Cc1ccccc1)NC(=O)[C@H](CCC(=O)O)NC(=O)[C@H](C)NC(=O)[C@@H]1CCCN1C(=O)[C@H](CC(C)C)NC(=O)[C@H](Cc1c[nH]cn1)NC(=O)[C@H](C)NC(=O)[C@H](C)N)[C@@H](C)O)C(C)C)C(=O)N[C@@H](C)C(=O)N[C@@H](CO)C(=O)O [HBA1(111–132)] (H-AAHLPAEFTPAVHASLDKFLAS-OH)
- half-life at 8.7 µM (in vitro): 52 min

Compound: CC(C)C[C@H](NC(=O)[C@H](Cc1ccccc1)NC(=O)[C@H](CCCCN)NC(=O)[C@H](CC(=O)O)NC(=O)[C@H](CC(C)C)NC(=O)[C@H](CO)NC(=O)[C@H](C)NC(=O)[C@H](Cc1c[nH]cn1)NC(=O)[C@@H](NC(=O)[C@H](C)NC(=O)[C@@H]1CCCN1C(=O)[C@@H](NC(=O)[C@H](Cc1ccccc1)NC(=O)[C@H](CCC(=O)O)NC(=O)[C@H](C)NC(=O)[C@@H]1CCCN1C(=O)[C@H](CC(C)C)NC(=O)[C@@H](N)Cc1c[nH]cn1)[C@@H](C)O)C(C)C)C(=O)N[C@@H](C)C(=O)N[C@@H](CO)C(=O)O [HBA1(113–132)] (H-HLPAEFTPAVHASLDKFLAS-OH)
- time of appearance of degradation fragment above 5% of total HBA1 content [2]: ≤ 15 min
- time of peak abundance of degradation fragment post plasma treatment [2]: > 140 min

Compound: CC(C)C[C@H](NC(=O)[C@H](Cc1ccccc1)NC(=O)[C@H](CCCCN)NC(=O)[C@H](CC(=O)O)NC(=O)[C@H](CC(C)C)NC(=O)[C@H](CO)NC(=O)[C@H](C)NC(=O)[C@H](Cc1c[nH]cn1)NC(=O)[C@@H](NC(=O)[C@H](C)NC(=O)[C@@H]1CCCN1C(=O)[C@@H](NC(=O)[C@H](Cc1ccccc1)NC(=O)[C@H](CCC(=O)O)NC(=O)[C@H](C)NC(=O)[C@@H]1CCCN1)[C@@H](C)O)C(C)C)C(=O)N[C@@H](C)C(=O)N[C@@H](CO)C(=O)O [HBA1(115–132)] (H-PAEFTPAVHASLDKFLAS-OH)
- time of appearance of degradation fragment above 5% of total HBA1 content [2]: 180 min

Compound: CC(C)C[C@H](NC(=O)[C@H](CO)NC(=O)[C@H](C)NC(=O)[C@H](Cc1c[nH]cn1)NC(=O)[C@@H](NC(=O)[C@H](C)NC(=O)[C@@H]1CCCN1)C(C)C)C(=O)N[C@@H](C)C(=O)N[C@@H](C)C(=O)N[C@@H](Cc1ccccc1)C(=O)N[C@@H](CC(C)C)C(=O)N[C@@H](C)C(=O)N[C@@H](CO)C(=O)O [HBA1(120–132)D127A + K128A] (H-PAVHASLAAFLAS-OH)
- solubility (precipitation turbidity, optical density) [3]: almost insoluble in water

Compound: CC(C)C[C@H](NC(=O)[C@H](C)NC(=O)[C@H](C)NC(=O)[C@H](Cc1c[nH]cn1)NC(=O)[C@@H](NC(=O)[C@H](C)NC(=O)[C@@H]1CCCN1)C(C)C)C(=O)N[C@@H](CC(=O)O)C(=O)N[C@@H](CCCCN)C(=O)N[C@@H](Cc1ccccc1)C(=O)N[C@@H](CC(C)C)C(=O)N[C@@H](C)C(=O)N[C@@H](C)C(=O)O [HBA1(120–132)S125A + S132A] (H-PAVHAALDKFLAA-OH)
- solubility (precipitation turbidity, optical density) [3]: remained similar to HBA1(120–132)

Compound: CCC(=O)N1CCN(c2ccc(-n3c(=O)ccc4cnc5ccc(-c6cnc7ccccc7c6)cc5c43)cc2C(F)(F)F)CC1 [Torin-1]
- GFP-LC3B area per cell (puncta = autophagosomes) (HeLa GL cells [1]): expected increase of autophagosomes

Compound: D128A: HBA1(120–132) with aspartic acid exchanged for alanine (PAVHASLAKFLAS; UniProt P69905 120-132, looked up, fragment D127A)
- solubility (precipitation turbidity, optical density) [3]: does not alter the function nor the solubility
- autophagosome levels, versions of HBA1(120–132) (HeLa GL cells [4]): does not alter the function

Compound: K127A: HBA1(120–132) with lysine exchanged for alanine (PAVHASLDAFLAS; UniProt P69905 120-132, looked up, fragment K128A)
- solubility (precipitation turbidity, optical density) [3]: precipitates were detected
- autophagosome levels, versions of HBA1(120–132) (HeLa GL cells [4]): the function to inhibit autophagy was reduced

Compound: TNF-α
- half-life [5]: around 18 min

Compound: full-length HB: recombinant full-length hemoglobin
- secondary structure in solution (circular dichroism) (Circular dichroism): mainly composed of alpha-helical structures

Compound: full-length HBA1: full-length hemoglobin A (HB subunit alpha-1)
- effect on autophagosome levels (HeLa GL cells [4]; concentration range 1 mg/ml–7.8 µg/ml, n = 3): did not impact autophagosome levels
